Data published in patent US7462647B2, “Pentalfluoroalkanesulfinyl naphthalenes and related estrogen receptor modulators” (Eli Lilly and Company, priority 2003, dated 2008).
pIC50, pKi: −log10 of the molar value.

What was measured:
ERAlpha receptor = biological target: T1, ERAlpha receptor (Homo sapiens, UniProt P03372); assay: Competition binding assay, 3H-Estradiol, ER alpha; details: IC50 converted to Ki using Cheng-Prusoff equation
T1 construct: purchased PanVera
T1 sequence (P03372 1-595): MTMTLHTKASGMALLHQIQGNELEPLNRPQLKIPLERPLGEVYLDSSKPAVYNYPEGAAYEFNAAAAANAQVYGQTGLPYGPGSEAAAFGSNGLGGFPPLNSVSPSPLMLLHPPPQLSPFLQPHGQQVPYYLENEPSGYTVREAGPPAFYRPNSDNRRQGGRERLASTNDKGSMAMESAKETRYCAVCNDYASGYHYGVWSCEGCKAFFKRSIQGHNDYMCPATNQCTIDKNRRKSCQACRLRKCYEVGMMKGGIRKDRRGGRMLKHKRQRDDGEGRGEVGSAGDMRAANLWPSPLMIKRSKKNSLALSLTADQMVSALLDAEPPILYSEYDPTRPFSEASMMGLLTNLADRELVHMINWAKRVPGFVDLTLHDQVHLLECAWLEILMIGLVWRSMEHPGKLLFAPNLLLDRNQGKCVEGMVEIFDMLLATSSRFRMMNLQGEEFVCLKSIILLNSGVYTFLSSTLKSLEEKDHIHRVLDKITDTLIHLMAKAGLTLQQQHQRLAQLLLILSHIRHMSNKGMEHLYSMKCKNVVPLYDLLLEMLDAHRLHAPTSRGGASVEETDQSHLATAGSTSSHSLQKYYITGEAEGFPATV
Description: (§1) Competition binding assay is run in a buffer containing 50 mM Hepes, pH 7.5, 1.5 mM EDTA, 150 mM NaCl, 10% glycerol, 1 mg/ml ovalbumin and 5 mM DTT, using 0.025 μCi per well ^3H-Estradiol(NEN #NET517 at […], 1 mCi/ml), 10 ng/well ERAlpha or ERbeta receptor (PanVera). Competing compounds are added at 10 different concentrations. Non-specific binding is determined in the presence of 1 μM of 17-B Estradiol. The binding reaction (140 μl) is incubated for 4 hours at room temperature, then 70 μl of cold DCC buffer is added to each reaction (DCC buffer contains per 50 ml of assay buffer, 0.75 g of charcoal (Sigma) and 0.25 g of dextran (Pharmacia)). Plates are mixed 8 minutes on an orbital shaker at 4° C. Plates are then centrifuged at 3,000 rpm at 4° C. for 10 minutes. An aliquot of 120 μl of the mix is transferred to another 96-well, white flat bottom plate (Costar) and 175 μl of Wallac Optiphase “Hisafe 3” scintillation fluid is added to each well. Plates are sealed and shaken vigorously on an orbital shaker. After an incubation of 2.5 hrs, read plates in a Wallac Microbeta counter. The data is used to calculate an IC50 and % Inhibition at 10 μM. The Kd for ^3H-Estradiol is determined by saturation binding to ER alpha and ER beta receptors. The IC50 values for compounds are converted to K; using Cheng-Prusoff equation and the Kd determined by saturation binding assay.

ERbeta receptor = biological target: T2, ERbeta receptor (Homo sapiens, UniProt Q92731); assay: Competition binding assay, 3H-Estradiol, ER beta; details: IC50 converted to Ki using Cheng-Prusoff equation; read-out: Binding ER b Ki
T2 construct: purchased PanVera
T2 sequence (Q92731 whole entry): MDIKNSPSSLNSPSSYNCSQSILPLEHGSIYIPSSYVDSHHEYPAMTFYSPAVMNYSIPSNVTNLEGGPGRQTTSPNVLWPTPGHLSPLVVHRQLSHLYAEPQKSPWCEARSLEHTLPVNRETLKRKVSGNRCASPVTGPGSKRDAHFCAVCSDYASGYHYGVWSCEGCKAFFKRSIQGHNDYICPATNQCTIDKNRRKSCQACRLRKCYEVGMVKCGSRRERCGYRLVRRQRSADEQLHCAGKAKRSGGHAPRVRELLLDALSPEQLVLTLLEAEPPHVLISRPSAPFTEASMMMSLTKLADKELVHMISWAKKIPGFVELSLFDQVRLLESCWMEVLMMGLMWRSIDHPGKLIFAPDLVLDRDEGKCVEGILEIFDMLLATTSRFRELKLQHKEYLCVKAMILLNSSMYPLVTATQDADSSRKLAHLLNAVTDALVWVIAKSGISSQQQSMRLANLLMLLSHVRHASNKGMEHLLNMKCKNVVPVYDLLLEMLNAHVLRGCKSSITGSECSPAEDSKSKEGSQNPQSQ
Description: as §1

[1] = tested on: MCF-7 breast adenocarcinoma cells; assay: MCF-7 proliferation assay (14C-thymidine), antagonist mode; format: cell-based
Description: MCF-7 breast adenocarcinoma cells (ATCC HTB 22) are maintained in MEM (minimal essential medium, phenol red-free, Gibco BRL) supplemented with 10% fetal bovine serum (FBS) (V/V), L-glutamine (2 mM), sodium pyruvate (1 mM), HEPES ((N-[2-hydroxyethyl]piperazine-N′-[2-ethanesulfonic acid]10 mM}, non-essential amino acids (0.1 mM) and Penicillin Streptomycin(IX). Seven days prior to assay, MCF-7 cells are switched to assay media which is the same as maintenance medium except supplemented with 10% dextran-coated charcoal-stripped fetal bovine serum (DCC-FBS) assay medium in place of 10% FBS. MCF-7 cells are removed from flasks using 10× Trypsin EDTA (phenol red free, Gibco BRL) and diluted to 1× in (Ca++/Mg++ free HBSS (phenol red-free). Cells are adjusted to 80,000 cells/ml in assay medium. […] For each of the agonist plates, a basal level (media), and a maximum stimulated level (with 1 μM E2) is determined. For each of the antagonist plates, a basal level (media) and a E2 (10 pM) alone control is determined. […] The plates are incubated overnight in the same incubator and then counted on the Wallac Microbeta counter. […] For the agonist mode, an EC50 and percent of maximum E2 stimulation and concentration of maximum stimulation is calculated. […]

[2] = tested on: Ishikawa human endometrial tumor cells; assay: Ishikawa cell alkaline phosphatase (PNPP) assay, antagonist mode; format: cell-based
Excerpt: Ishikawa human endometrial tumor cells are maintained in MEM (minimum essential medium, with Earle's salts and L-Glutamine, Gibco BRL, Gaithersburg, Md.), supplemented with 10% fetal bovine serum (FBS) (V/V), (Gibco BRL). One day prior to assay, growth media is changed to assay medium, DMEM/F-12 (3:1) (Dulbecco's Modified Eagle Medium: Nutrient Mixture F-12, 3:1 Mixture, phenol red-free, Gibco BRL) supplemented with 5% dextran coated charcoal stripped fetal bovine serum (DCC-FBS) (Hyclone, Logen, UT), L-Glutamine (2 mM), MEM sodium pyruvate (1 mM), HEPES (N-[2-hydroxyethyl]piperazine-N′-[2-ethanesulfonic acid]2 mM) all from Gibco BRL). After an overnight incubation, ishikawa cells are rinsed with Dulbecco's Phosphate Buffered Saline (1×) (D-PBS) without Ca^+2 and Mg^+2 (Gibco BRL), and trypsinized by a 3 minute incubation with 0.25% Trypsin/EDTA, phenol red-free (Gibco BRL). Cells are resuspended in assay medium and adjusted to 250,000 cells/ml. […] After a 20-minute incubation, plates are read on a spectophotometer at 405 nm. […] For the agonist mode, a % efficacy for each compound is calculated versus the response to Tamoxifen. For the antagonist mode, a % efficacy for each compound is calculated versus E2 (1 nM) alone.

COc1ccc(-c2ccc3cc(O)ccc3c2Oc2ccc(OCCCC[S+]([O-])CCCC(F)(F)C(F)(F)F)cc2)cc1 (stereo not drawn) [Example 2, 6-(4-Methoxy-phenyl)-5-{4-[4-(4,4,5,5,5-pentafluoro-pentane-sulfinyl)-butoxy]-phenoxy}-naphthalen-2-ol]
pKi (ERAlpha receptor): 9.52 | pKi (ERbeta receptor): 9.70 | MCF-7 Antag. % Eff. ([1]; 10 pM E2, % inhibition @ 1 μM): 86% | pIC50 ([1]; Homo sapiens, MCF7, 10 pM E2, read-out: MCF-7 IC 50): 8.60 | Ishikawa Antag. % Eff. ([2]; % efficacy versus E2 (1 nM) alone): 100% | pIC50 ([2]; Homo sapiens, Ishikawa, E2 1 nM, read-out: Ishikawa IC 50): 8.17
